Source: a melting point compilation (Tetko et al.; mined from patent text by program, amines drawn as free bases though some values may be those of a salt)

Row | melting point [°C] | SMILES
1 | 230 to 234 | O=C1Nc2ccc(Cl)cc2SC1c1ccc(Cl)cc1 (stereo not given)
2 | 206 | CCc1cc(-c2cc(-c3ccc(C(=O)O)cc3)ccc2OCCO)ccc1N(CC)CC
3 | > 300 | O=c1c2cnccc2[nH]c2ccnn12
4 | 78 to 80 | O=C1c2ccccc2C(=O)N1CCCOc1cccc(CO)c1
5 | 79 to 80 | CCN(CC)CCNC(=O)N1CCCC(S(=O)(=O)c2ccc(OCCN(C)C)cc2)C1 (stereo not given)
6 | 310 | COc1ccc(OC)c(C(Nc2ccc(C(=N)N)cc2)C(=O)O)c1 (racemic)
7 | 138 to 140 | CCn1c(-c2c(Cl)cccc2Cl)nc(-c2ccnc(OC)c2)c1-c1ccc(Cl)cc1
8 | 159 to 160 | Cc1sc(-c2ccccc2F)nc1O
9 | 116 to 117 | CCCCS(=O)CCCNc1cc2oc(=O)[nH]c2cc1F (stereo not given)
10 | 209 to 211 | CCCc1c(-c2ccncc2)[nH]c(-c2ccncc2)c1C(=O)OCC
11 | 54 to 58 | COc1ccc2cccc(Br)c2c1
12 | 180 to 182 | CC(=O)SC(C)C(Cc1ccccc1)C(=O)Nc1cccc(C(=O)O)c1 (stereo not given)
13 | 152 to 153 | CCOC(=O)C1(O)c2ccccc2S(=O)(=O)N1Cc1ccc(Br)cc1 (stereo not given)
14 | 211 to 212 | CN(Cc1cc(C(F)(F)F)cc(C(F)(F)F)c1)C(=O)c1c(-c2ccc(F)cc2)c2cccnc2c(=O)n1C
15 | 290 to 293 | COCc1c(-c2nnc(N)o2)ncc2[nH]c3ccc(OCc4ccccc4)cc3c12
16 | 211 to 213 | CC(C)(C)OC(=O)CN1CC(c2cccc3ccccc23)SCC(N2C(=O)c3ccccc3C2=O)C1=O (stereo not given)
17 | 158 to 160 | CC(C)N=C(NC#N)NCCN1CCC(C(=O)c2ccc(F)cc2)CC1
18 | 128 to 136 | OCc1cc(Cl)c(Cl)cc1CO
19 | 95 to 104 | CCOc1nc(NCCCCC2CC(C)(C)NC(C)(C)C2)nc(NCCCCC2CC(C)(C)NC(C)(C)C2)n1
20 | 106 to 108 | COC(=O)c1cc(-c2ccc(C)cc2)no1
21 | 280 to 285 | COc1cc2c(C3C(=O)Nc4ccccc43)ncnc2cc1OCc1ccccc1 (stereo not given)
22 | 76 to 78 | CC1Nc2cc(F)ccc2-n2cccc21 (stereo not given)
23 | 215 to 220 | NC(=O)Oc1ccc2c(c1)[nH]c(=O)c1c3ccc(OC(N)=O)cc3oc21

Row | melting point [°C] | SMILES
24 | 132 to 134 | CC(C)(C)OC(=O)N1CCc2ccc3ccn(CCOc4ccccc4F)c3c2CC1
25 | 239 to 241 | Oc1ccc2oc(-c3cccc(O)c3O)nc2c1
26 | 96 to 97 | CN(C)CCn1c(=O)c2cccc([N+](=O)[O-])c2c2cnc3cc4c(cc3c21)OCO4
27 | 189 to 190 | OCCCCc1c[nH]c2ccccc12
28 | 247 to 248 | NC(=S)c1cc(F)c2ncc(C(=O)NCc3ccc(Cl)cc3)c(O)c2c1
29 | > 300 | C=CCn1cc2c(C3C(=O)Nc4ccc(C#N)cc43)ncnc2n1 (stereo not given)
30 | 88 | CCOC(=O)CCCCC(=O)OC[C@@H]1CC(c2ccc(-c3ccc(N4C[C@H](Cn5ccnn5)OC4=O)cc3F)cn2)=NO1
31 | 56 to 58 | CSc1cc(C(C)(C)C)nn1C(=O)N(C)C
32 | 89 to 90 | CCOC(=O)C1=C(C)NC(COC(C)=O)=C(C(=O)OCC)C1c1ccc(OC)cc1 (stereo not given)
33 | 170 | COc1cc(N)c(Cl)cc1C(=O)N[C@H]1CCN(CCNc2nccnc2C)C[C@H]1OC (relative stereo)
34 | 83 to 85 | C[C@@H](N1CCN(c2ccc(-n3cnn(Cc4ccc(OCC(F)(F)C(F)F)cc4)c3=O)cc2)CC1)[C@](O)(Cn1cncn1)c1ccc(F)cc1F
35 | 233 | CNc1nc(-c2ccc(C(F)(F)F)cc2)c2cc(C)sc2n1
36 | 172 to 178 | CS(=O)(=O)Nc1ccc([N+](=O)[O-])cc1C(=O)c1ccc(F)cc1F
37 | 167 to 168 | Oc1cccc2c1sc1ccccc12
38 | 212 | CC(C)(C)COc1ccc(-n2ncc(C(=O)O)c2Cl)cc1C#N
39 | 140 | COc1ccc(C(=O)c2cccc(NC(=O)c3ccn4c3CSC4c3cccnc3)c2)cc1 (stereo not given)
40 | 148 to 150 | CCOC(=O)/C=C/c1ccc(-c2ccc(OCc3ccccc3)c(C34CC5CC(CC(C5)C3)C4)c2)c(Cl)c1
41 | 186 to 187 | COC(=O)C1(C)COC(c2nc(-c3ccc(F)cc3)c(-c3ccnc(S(C)(=O)=O)n3)[nH]2)OC1 (stereo not given)
42 | 119 to 120 | CCCOc1c(C=NO)c(=O)n(C)c(=O)n1C
43 | 198 | CN1C(=O)C(Br)=C(c2cn(S(=O)(=O)c3ccccc3)c3ncccc23)C1=O
44 | 293 to 295 | Cn1cccc1-c1nc2c(N[C@H]3[C@@H](C(N)=O)[C@@H]4C=C[C@H]3C4)c(Br)cnc2[nH]1
45 | 128 to 129 | CC(C)(C)OC(=O)NCCc1cccc(C(=O)c2cc(Cl)ccc2N)c1
46 | 97 to 98 | C[C@@](O)(CO)COc1cccc(-c2noc3ccsc23)c1

Row | melting point [°C] | SMILES
47 | 216 to 218 | CC(C)C(=O)NCCc1ccc(NC(=O)C=C2CC(C(=O)O)Nc3cc(Cl)cc(Cl)c32)cc1 (racemic)
48 | 150 to 151 | COC(=O)Cc1csc(NC(=O)C(CC2CCCC2)c2ccc(Cl)c(Cl)c2)n1 (stereo not given)
49 | > 250 | COc1cc2c(cc1F)C(=O)c1cc3ccccc3cc1C2=O
50 | 118 to 120 | C=CCOc1ccccc1-c1ncc(C(=O)OCC)c(=O)[nH]1
51 | 160 to 165 | CC(=O)Nc1ccc(/C=C/C(=O)NC/C=C(/C)c2ccc(C)c(CO)c2C)cn1
52 | 139 to 141 | Cc1cccc(Cl)c1Nc1ccccc1CC(N)=O
53 | 258 to 259 | Cc1cc2c(cc1C(=O)O)CCC(CCN1CCCC1)=C2
54 | 142 to 146 | CCOP(=O)(OCC)C(C)(C)CC1(C)NC(=O)NC1=O (stereo not given)
55 | 259 to 261 | CC1(c2ccc(O)c(O)c2)C(=O)Nc2ccccc2C1=O (stereo not given)
56 | 135 to 137 | Cc1cc(-n2ccc(OCCCO)cc2=O)sc1C(=O)NCc1cccc(F)c1
57 | 163 to 165 | O=C(O)CCCCCc1cccc2c(I)ncn12
58 | 194 to 196 | Cc1cccc(-n2c(-c3cc(-c4ccccc4)c(N4CCOCC4)s3)nc3ccccc3c2=O)c1
59 | 120 to 122 | CC(C)(C)OC(=O)N[C@H]1COC1=O
60 | 164 to 168 | COC(=O)Cc1ccccc1S(=O)(=O)NC(=S)Nc1nc(OC)nc(OC)n1
61 | > 250 | COc1ccc(-c2nc(N3CCN(C)CC3)c3c(C)c(C#N)sc3n2)cc1
62 | 182 | O=C(NN1CCCCC1)c1ccc(-c2ccc(Cl)cc2)c(-c2ccc(Cl)cc2Cl)c1
63 | 100 to 103 | O=C(OCc1ccccc1)c1ccc(OC(=O)c2ccccc2C(=O)Oc2ccc(C(=O)OCc3ccccc3)cc2)cc1
64 | 203 to 204 | Cc1nc(-n2ccc(OCc3ccccc3)cc2=O)[nH]c1C(=O)NCc1cccnc1
65 | 113 | CCCCOC(=O)Cc1cc(O)c(C)cc1O
66 | 151 to 153 | CCC(CC)Oc1cc(C)nc2c1n(C)c(=O)n2-c1c(C)cc(C)cc1C
67 | 43 to 47 | Brc1ccc2c(c1)COCO2

Row | SMILES | melting point [°C]
68 | CC(C(=O)C(C)(C)CF)n1cncn1 (stereo not given) | 62 to 78
69 | Cc1ccc(S(=O)(=O)N2CCCC2c2cccnc2)cc1 (racemic) | 112
70 | Cc1nc(C)n2c1CN=C(c1ccccc1Cl)c1cc(Cl)ccc1-2 | 175 to 177
